Entries after “also recorded” stand apart in the source; their conditions may differ.
Assays:
Format in all cases: cell-based
protein synthesis = test: De novo protein synthesis, HPG incorporation with Click-iT detection
Experimental: FIGS. 14A-14B. […] The major function of endogenous stress granules is to bind mRNAs and halt protein synthesis until the cellular stress is removed. To test this, cells expressing G3BP1-NcVVDY50W were either exposed to blue light stimulation or not for 30 minutes and protein translation was assessed. Prior to the translation assay, cells were treated with cyclohexamide for one hour to inhibit protein synthesis and then the cyclohexamide was removed and cells were provided L-Homopropargylglycine (HPG) for one hour. HPG acts as a methionine amino acid analog and is incorporated into newly synthesized proteins. Click-iT™ chemistry was then performed to detect HPG and cells were imaged. Green signal indicates newly synthesized proteins during the time at which HPG is present in the media.
FIGS. 24A-24E. Replacing the G3BP1 NTF2 domain, which is required for G3BP1 self-oligomerization (optoSG), with oligomerizing photoreceptors, is sufficient to initiate the formation of optogenetic stress granules. FIG. 24A) Schematics of an additional approach to seed optoStress Granules (optoSGs) employing truncated G3BP1 protein and replacing the NTF2 oligomerizing domain with a photoreceptor with the capacity to oligomerize (in this instance Cry2-PHR, but also works with chronic stimulation of dimerizing photoreceptor). FIG. 24B) HEK cells expressing Cry2 PHR-[…]NTF-G3BP1 were exposed to blue light LED stimulation for 30 minutes to induce the formation of optoSGs.

HEK293 cells = test: Blue light induced stress granules: staining for stress granule markers and mRNA; conditions: blue light stimulation
Description: FIGS. 2A-2B. Blue light induced stress granules using a NcVVDY50W-G3BP1 protein arrangement. […] A DNA arrangement that generates the NcVVDY50W-G3BP1 was developed and expressed in HEK293 cells. Under normal conditions, the NcVVDY50W-G3BP1 remains diffuse in the cytoplasm. When endogenous stress granule formation is induced with heat shock, the NcVVDY50W-G3BP1 forms stress granules that stain positive for key markers including Ataxin-2 and TIAR.
FIG. 5. […] Under normal conditions, G3BP1-NcVVDY50W remains diffuse in the cytoplasm. When endogenous stress granule formation is induced with NaAsO2 (0.5 mM, 30 min treatment), the G3BP1-NcVVDY50W forms stress granules that stain positive for key markers TDP-43 and eIF4G. […] As an example of this technology, DNA arrangements were developed that generated G3BP1-NcVVDY50W, and expressed in HEK293 cells. Under normal conditions, the G3BP1-NcVVDY50W remains diffuse in the cytoplasm. When endogenous stress granule formation is induced with sodium arsenite, the G3BP1-NcVVDY50W forms stress granules that probe positive for key markers, including TDP-43 and eIF4G. […] Inserts are 3D images of stress granules indicated by arrows.
While stress granule dynamics are shown to be altered in these diseases, the true contributions of stress granules to disease pathobiology is unknown since the only current method to form these organelles is to introduce an extracellular stressor (e.g. heat stress at 43° C., exposure to sodium arsenite) which is toxic to cells and ultimately kills the cells being studied. The longest studies of stress granules to date are only on the order of a few hours and so, the importance of these organelles in the initiation of neurodegeneration or cancer cannot be assessed. Therefore, a method to control stress granule formation was developed using light, without the need for any extracellular stressors. To achieve this, the DNA encoding specific photoreceptor protein domains that self-bind with blue light exposure were linked to the DNA of a key protein required for the formation of stress granules, G3BP1 or TIA1. These arrangements were then expressed in HEK293 cells and were tested for their ability to form functional stress granules with various blue light treatment paradigms. It was shown that the LOV photoreceptor domain, from the Vivid protein of N. crassa, which is known to dimerize with blue light exposure, when fused to G3BP1 and exposed to 15-1080 min of 465 nm light at 0.1-1.0 mW/cm2 initiates the formation of a core stress granule structure consisting of the photoreceptors fused to G3BP1 that recruits additional G3BP1 and accessory proteins that comprise stress granules and allow for their maturation. This likely involved the liquid-liquid phase separation (LLPS) and dimerization and oligomerization of G3BP1 (concept represented in FIG. 1).

[1] = test system: ReNCell differentiated cortical neuron-like cells; test: Blue light induced stress granules in ReNCell differentiated cortical neuron-like cells
Description: FIG. 20. Blue light induced stress granules using a G3BP1-NcVVDY50W protein arrangement in ReNCell differentiated cortical neuron-like cells. A DNA arrangement that generates the G3BP1-NcVVDY50W was developed and expressed in ReNCell differentiated cortical neuron-like cells. To confirm differentiation of ReN cells to cortical neuron-like cells, cultures were probed for MAP2, a protein that is only expressed in neurons. Under normal conditions, the NcVVDY50W-G3BP1 remains diffuse in the cytoplasm.

phospho-eIF2a and ATF4 = test: Western blotting for integrated stress response (ISR) components; conditions: total protein of cells with blue light induced stress granules
Description: FIGS. 21A-21B. […] Total cellular protein from blue light induced stress granules using G3BP1-NcVVDY50W protein arrangement was collected.

G3BP1-NcVVDY50W: G3BP1 Full Length Protein with NcVivid Y50W, SEQ ID NO: 16
reduction in protein synthesis with light-induced stress granules (protein synthesis; blue light stimulation 30 minutes, HPG for one hour): 40% | protein synthesis (HPG signal) with light-induced stress granules (protein synthesis; blue light stimulation, Click-iT detection): little to no HPG signal | colocalization of blue light induced stress granules with stress granule markers (HEK293 cells): colocalize with the key translation factor eIF4G, and the stress granule marker Ataxin-2; also recorded: colocalize with the key stress granule markers TIAR and G3BP; also recorded: probe positive for TDP-43 and eIF4G; also recorded: colocalize with the key stress granule markers RPS6 and eIF4G (FIG. 6A), as well as Ataxin-2 and RPS3; also recorded: colocalize with the key stress granule markers PABPC1 and G3BP (FIG. 7A), as well as eIF3H and eIF4G; also recorded: colocalize with the key stress granule markers FUS and G3BP; also recorded: colocalize with the key stress granule marker Ataxin-2, but not RPL36a | mRNA sequestration by blue light induced stress granules (HEK293 cells): sequester cytoplasmic mRNA | colocalization of blue light induced stress granules with Ataxin-2 [1]: colocalize with the key stress granule marker Ataxin-2 | induction of cell stress (phospho-eIF2a, ATF4) (phospho-eIF2a and ATF4): do not induce a cell stress
